In assay [1] the target is TGF-beta receptor type-2 (Homo sapiens) (UniProt P37173). Description: Selectivity interaction (KinomeScan (DiscoverX)) EUB0000695a TGFBR2. The settings on record: at 100 nM.
Assay [2] concerns the target Vascular endothelial growth factor receptor 3 (Homo sapiens, UniProt P35916). Description: Selectivity interaction (KinomeScan (DiscoverX)) EUB0000695a FLT4. The settings on record: at 100 nM.
The target in assay [3] is Serine/threonine-protein kinase RIO2 (Homo sapiens) (UniProt Q9BVS4). Briefly: Selectivity interaction (KinomeScan (DiscoverX)) EUB0000695a RIOK2. The settings on record: at 100 nM.
Assay [4] has as its target T1, Bone morphogenetic protein receptor type-2 (Homo sapiens) (UniProt Q13873).
T1 sequence (whole entry): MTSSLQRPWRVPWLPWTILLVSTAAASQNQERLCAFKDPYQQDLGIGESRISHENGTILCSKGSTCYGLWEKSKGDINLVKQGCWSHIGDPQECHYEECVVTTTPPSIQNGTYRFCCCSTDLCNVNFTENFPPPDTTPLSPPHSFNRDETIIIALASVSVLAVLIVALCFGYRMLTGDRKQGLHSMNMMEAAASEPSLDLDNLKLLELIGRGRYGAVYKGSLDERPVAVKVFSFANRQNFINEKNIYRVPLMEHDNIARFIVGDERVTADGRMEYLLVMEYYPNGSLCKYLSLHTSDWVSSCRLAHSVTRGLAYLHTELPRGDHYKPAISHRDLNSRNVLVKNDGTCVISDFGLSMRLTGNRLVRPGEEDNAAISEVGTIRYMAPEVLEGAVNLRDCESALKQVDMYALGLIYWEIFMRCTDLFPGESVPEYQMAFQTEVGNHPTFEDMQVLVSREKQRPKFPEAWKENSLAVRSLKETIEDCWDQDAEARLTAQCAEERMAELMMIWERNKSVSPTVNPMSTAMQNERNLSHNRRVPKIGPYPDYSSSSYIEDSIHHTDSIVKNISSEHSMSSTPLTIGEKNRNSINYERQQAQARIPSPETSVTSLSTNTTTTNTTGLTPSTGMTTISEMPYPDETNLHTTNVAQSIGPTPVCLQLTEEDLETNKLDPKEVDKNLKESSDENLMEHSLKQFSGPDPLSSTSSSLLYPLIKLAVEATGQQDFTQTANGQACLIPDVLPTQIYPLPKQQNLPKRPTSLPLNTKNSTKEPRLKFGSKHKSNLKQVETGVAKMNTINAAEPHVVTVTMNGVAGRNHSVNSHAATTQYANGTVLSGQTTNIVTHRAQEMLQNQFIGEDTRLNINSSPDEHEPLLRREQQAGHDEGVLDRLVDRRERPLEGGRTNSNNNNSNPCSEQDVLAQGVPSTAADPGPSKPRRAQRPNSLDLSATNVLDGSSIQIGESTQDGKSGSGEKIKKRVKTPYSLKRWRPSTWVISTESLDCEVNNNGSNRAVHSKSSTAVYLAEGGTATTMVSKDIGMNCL
Description: Selectivity interaction (KinomeScan (DiscoverX)) EUB0000666a BMPR2. Particulars: at 10 µM.

Assay [5] concerns the target Tyrosine-protein kinase CSK (Homo sapiens) (UniProt P41240). Description: Selectivity interaction (Kinase screening (Nanosyn)) EUB0000604a CSK.
Assay [6] has as its target Tyrosine-protein kinase JAK1 (Homo sapiens, UniProt P23458). Briefly: Selectivity interaction (ActivX KiNativ screen (kinase selectivity in THP-1 cell lysates)) EUB0000639a JAK1. Type of assay: subcellular. Particulars: lysate, at 0.04 µM.
Assay [7] deals with Tyrosine-protein kinase SYK (Homo sapiens, UniProt P43405). Description: Selectivity interaction (ActivX KiNativ screen (kinase selectivity in THP-1 cell lysates)) EUB0000639a SYK. Type of assay: subcellular. Particulars: lysate, at 0.2 µM.
Assay [8] deals with T2, Tyrosine-protein kinase TXK (Homo sapiens) (UniProt P42681).
T2 sequence (whole entry): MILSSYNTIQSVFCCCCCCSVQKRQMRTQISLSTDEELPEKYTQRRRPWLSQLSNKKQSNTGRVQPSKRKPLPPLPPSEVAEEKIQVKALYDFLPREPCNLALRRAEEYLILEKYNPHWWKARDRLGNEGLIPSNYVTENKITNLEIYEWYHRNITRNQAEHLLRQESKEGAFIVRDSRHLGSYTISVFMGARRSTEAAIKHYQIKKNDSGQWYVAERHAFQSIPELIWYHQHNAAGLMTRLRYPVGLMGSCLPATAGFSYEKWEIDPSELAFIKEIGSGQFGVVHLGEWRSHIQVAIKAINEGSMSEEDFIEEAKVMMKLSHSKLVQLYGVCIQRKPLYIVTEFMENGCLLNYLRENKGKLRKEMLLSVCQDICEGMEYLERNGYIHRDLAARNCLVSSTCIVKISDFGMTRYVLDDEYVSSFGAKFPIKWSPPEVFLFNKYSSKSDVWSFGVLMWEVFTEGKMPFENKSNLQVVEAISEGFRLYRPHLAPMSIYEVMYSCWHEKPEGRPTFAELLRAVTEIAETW
Briefly: Selectivity interaction (ProQinase) EUB0000171b TXK.

In assay [9] the target is Protein kinase C delta type (Homo sapiens) (UniProt Q05655). Briefly: Selectivity interaction (Upstate Kinase Profiler service (Millipore)) EUB0000056c PRKCD. The settings on record: at 1 µM.
In assay [10] the target is Cyclin-dependent kinase 17 (Homo sapiens) (UniProt Q00537). Description: Selectivity interaction (KinomeScan (DiscoverX)) EUB0000655a CDK17. The settings on record: at 10 µM.
Chain of Cyclin-dependent kinase 17 (Homo sapiens) (Q00537 whole entry, looked up): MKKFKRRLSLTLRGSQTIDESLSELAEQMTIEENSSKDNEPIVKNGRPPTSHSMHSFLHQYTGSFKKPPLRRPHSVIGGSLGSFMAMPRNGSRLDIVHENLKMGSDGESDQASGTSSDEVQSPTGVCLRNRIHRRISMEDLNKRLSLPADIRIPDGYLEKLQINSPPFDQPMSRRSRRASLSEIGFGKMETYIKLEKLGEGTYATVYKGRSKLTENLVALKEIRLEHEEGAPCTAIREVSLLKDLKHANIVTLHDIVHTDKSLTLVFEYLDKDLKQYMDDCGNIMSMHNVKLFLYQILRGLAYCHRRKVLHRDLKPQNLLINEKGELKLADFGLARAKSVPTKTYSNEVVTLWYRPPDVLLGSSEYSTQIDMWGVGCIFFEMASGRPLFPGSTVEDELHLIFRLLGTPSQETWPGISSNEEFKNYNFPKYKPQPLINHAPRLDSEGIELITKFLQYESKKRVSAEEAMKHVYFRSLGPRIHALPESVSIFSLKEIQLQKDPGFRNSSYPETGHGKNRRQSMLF
In assay [11] the target is Death-associated protein kinase 3 (Homo sapiens) (UniProt O43293). Briefly: Selectivity interaction (KinomeScan (DiscoverX)) EUB0000655a DAPK3. Particulars: at 10 µM.
Assay [12] has as its target Serine/threonine-protein kinase OSR1 (Homo sapiens) (UniProt O95747). Description: Selectivity interaction (KinomeScan (DiscoverX)) EUB0000618a OXSR1. Particulars: at 10 µM.
Assay [13] addresses Ribosomal protein S6 kinase alpha-1 (Homo sapiens, UniProt Q15418). Briefly: Selectivity interaction (KinomeScan (DiscoverX)) EUB0000092b RPS6KA1. The settings on record: at 10 µM.

Chain of Ribosomal protein S6 kinase alpha-1 (Q15418 whole entry): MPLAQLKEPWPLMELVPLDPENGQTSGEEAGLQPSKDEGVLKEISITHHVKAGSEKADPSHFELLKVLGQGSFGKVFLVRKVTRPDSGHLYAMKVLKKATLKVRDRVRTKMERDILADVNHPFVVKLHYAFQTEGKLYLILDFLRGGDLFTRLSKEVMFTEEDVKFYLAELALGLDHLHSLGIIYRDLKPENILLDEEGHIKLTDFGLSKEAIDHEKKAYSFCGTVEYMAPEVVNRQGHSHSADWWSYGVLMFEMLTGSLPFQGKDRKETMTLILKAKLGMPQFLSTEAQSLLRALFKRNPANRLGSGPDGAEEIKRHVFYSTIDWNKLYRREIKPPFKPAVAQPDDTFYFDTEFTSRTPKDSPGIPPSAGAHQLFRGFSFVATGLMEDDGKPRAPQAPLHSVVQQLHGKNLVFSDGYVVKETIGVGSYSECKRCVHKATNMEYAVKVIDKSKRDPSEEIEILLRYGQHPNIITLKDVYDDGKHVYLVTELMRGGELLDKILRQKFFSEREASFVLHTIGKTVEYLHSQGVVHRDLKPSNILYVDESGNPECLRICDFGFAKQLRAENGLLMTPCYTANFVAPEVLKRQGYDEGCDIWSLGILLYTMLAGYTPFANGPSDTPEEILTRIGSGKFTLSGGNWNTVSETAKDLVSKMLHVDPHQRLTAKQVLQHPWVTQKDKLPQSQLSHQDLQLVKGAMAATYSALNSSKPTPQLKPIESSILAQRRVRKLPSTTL
Chain of Vascular endothelial growth factor receptor 3 (P35916 whole entry): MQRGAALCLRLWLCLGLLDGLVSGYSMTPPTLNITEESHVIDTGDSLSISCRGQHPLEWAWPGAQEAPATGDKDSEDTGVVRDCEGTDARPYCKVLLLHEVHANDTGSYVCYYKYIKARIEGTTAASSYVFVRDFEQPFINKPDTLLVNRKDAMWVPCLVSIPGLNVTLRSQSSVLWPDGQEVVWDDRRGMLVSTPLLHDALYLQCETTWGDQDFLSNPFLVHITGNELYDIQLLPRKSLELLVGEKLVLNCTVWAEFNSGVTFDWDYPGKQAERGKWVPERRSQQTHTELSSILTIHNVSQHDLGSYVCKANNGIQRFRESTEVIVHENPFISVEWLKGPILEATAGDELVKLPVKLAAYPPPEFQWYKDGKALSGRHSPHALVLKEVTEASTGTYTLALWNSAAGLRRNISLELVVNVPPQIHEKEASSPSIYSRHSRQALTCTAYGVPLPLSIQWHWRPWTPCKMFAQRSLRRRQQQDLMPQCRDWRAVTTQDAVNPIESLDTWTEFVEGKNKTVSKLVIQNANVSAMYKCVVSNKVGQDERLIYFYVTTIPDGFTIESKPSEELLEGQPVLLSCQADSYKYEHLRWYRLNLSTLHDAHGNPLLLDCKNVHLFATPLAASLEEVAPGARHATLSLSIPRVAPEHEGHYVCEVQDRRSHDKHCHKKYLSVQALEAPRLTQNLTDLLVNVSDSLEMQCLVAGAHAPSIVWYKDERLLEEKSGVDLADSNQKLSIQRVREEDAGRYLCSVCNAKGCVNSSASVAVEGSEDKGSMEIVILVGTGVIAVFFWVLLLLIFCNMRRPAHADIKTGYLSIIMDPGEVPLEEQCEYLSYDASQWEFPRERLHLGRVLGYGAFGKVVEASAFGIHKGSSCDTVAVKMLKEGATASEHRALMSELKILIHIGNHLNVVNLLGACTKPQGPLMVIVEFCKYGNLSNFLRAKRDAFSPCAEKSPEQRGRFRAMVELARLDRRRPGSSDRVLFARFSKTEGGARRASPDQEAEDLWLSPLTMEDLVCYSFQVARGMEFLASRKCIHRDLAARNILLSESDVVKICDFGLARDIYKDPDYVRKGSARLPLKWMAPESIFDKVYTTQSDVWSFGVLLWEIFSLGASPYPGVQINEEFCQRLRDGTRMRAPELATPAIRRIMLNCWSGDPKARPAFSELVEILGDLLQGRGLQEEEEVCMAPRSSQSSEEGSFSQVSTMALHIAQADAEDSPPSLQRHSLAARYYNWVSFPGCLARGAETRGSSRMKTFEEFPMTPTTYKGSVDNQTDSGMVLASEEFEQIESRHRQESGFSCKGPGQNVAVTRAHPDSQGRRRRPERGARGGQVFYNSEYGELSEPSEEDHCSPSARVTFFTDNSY
Chain of Tyrosine-protein kinase CSK (Homo sapiens) (P41240 2-450 limits assumed): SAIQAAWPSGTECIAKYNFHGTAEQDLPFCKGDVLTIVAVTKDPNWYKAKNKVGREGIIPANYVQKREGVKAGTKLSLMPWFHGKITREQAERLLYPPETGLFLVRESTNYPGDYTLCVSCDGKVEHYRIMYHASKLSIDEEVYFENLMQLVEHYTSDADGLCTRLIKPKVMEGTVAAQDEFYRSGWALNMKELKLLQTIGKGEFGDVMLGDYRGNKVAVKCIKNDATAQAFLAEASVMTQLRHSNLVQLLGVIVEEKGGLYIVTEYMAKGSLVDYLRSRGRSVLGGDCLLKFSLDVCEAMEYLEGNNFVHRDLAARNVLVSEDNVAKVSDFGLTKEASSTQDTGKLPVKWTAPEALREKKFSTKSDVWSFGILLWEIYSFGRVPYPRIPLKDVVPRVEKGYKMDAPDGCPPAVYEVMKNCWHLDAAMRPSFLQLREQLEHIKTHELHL
Chain of TGF-beta receptor type-2 (Homo sapiens) (P37173 whole entry): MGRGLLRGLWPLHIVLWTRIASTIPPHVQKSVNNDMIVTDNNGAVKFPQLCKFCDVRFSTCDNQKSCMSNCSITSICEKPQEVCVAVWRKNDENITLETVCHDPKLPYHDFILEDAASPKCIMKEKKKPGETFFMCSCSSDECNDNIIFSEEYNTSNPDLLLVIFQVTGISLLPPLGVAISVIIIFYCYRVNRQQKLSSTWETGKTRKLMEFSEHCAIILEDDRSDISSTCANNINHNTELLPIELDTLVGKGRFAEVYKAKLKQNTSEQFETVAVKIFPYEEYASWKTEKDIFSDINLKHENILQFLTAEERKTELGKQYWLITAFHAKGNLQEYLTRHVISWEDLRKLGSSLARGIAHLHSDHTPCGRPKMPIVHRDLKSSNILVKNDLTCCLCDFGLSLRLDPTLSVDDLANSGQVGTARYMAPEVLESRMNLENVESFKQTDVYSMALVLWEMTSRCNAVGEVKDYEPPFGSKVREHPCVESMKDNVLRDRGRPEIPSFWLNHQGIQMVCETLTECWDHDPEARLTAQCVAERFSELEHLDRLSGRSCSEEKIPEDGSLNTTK
Chain of Tyrosine-protein kinase JAK1 (P23458 whole entry): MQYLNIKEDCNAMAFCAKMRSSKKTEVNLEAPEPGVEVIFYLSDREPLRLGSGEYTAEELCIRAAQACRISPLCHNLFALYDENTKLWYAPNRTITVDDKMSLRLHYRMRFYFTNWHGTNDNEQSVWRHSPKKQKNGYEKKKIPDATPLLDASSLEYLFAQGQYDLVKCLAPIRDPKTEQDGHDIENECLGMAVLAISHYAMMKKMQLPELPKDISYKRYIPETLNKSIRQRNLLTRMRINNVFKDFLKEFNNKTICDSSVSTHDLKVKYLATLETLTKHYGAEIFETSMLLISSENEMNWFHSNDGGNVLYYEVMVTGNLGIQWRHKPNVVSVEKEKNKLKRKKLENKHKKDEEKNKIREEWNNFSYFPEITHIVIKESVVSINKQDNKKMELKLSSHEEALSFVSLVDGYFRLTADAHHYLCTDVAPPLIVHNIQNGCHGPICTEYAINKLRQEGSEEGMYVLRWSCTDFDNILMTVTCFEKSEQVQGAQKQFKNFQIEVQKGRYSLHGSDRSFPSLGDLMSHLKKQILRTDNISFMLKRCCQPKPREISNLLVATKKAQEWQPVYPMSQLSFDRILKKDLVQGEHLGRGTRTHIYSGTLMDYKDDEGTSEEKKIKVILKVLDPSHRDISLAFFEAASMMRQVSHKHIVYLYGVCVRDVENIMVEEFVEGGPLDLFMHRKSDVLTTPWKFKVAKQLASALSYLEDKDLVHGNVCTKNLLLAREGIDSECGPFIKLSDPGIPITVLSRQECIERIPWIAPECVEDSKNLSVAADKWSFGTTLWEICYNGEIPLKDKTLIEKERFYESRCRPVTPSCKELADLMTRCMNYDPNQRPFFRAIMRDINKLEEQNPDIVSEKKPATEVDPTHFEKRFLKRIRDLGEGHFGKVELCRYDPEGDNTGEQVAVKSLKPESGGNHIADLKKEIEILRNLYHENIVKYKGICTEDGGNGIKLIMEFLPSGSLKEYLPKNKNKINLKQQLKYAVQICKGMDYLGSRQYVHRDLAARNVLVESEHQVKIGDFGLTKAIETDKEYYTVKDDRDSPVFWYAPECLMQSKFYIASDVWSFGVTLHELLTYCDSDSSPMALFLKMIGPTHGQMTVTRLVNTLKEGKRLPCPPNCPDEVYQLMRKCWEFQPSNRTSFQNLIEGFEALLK

In the case of `Cc1cc(F)c(C(=O)Nc2cccc(-c3nncn3C(C)C)n2)cc1-n1cnc(C2CC2)c1`, the % of control came out at 99% in [1], 100% in assay [2] and 100% in assay [3].

`O=C(NOC[C@H](O)CO)c1ccc(F)c(F)c1Nc1ccc(I)cc1F` registered a % of control in [4] of 81%.

For `Cc1cnc(Nc2ccc(F)cc2Cl)nc1-c1c[nH]c(C(=O)N[C@H](CO)c2cccc(Cl)c2)c1`, the % of inhibition in [5] worked out at 3%.

Turning to `CC[C@@H]1[C@H](F)C(=O)N[C@@H]1COc1nccc2cc(C(N)=O)c(OC)cc12` [ZIMLOVISERTIB], the % of inhibition in [6] was -11.6%; in assay [7] it was 9.3%.

Consider `C=CC(=O)Nc1cccc(C(=O)Nc2ccc(Nc3cc(-c4[nH]c(SC)nc4C)ccn3)cc2)c1`, for which the % of control in assay [8] (at 1 µM) is 87%; in [8] (at 5 µM) it was 77%.

`Cc1ccc(-c2ccc3c(ccc4sc5c(c43)NC[C@@H](C)NC5=O)n2)cn1`: the % of inhibition in assay [9] is 33%.

Regarding `CN(C)CCOc1ccc(-c2nc(-c3ccncc3)c(-c3ccc4c(c3)CC/C4=N\O)[nH]2)cc1`, the figures for the % of control in assay [10] and in assay [11] were 87% and 89%, respectively.

On to `O[C@H]1CC[C@H](Nc2ncc3nc(Nc4c(F)cc(F)cc4F)n([C@H]4CCOC4)c3n2)CC1`, for which the % of control in assay [12] came to 100%.

The compound `CCC(=O)N1CCN(c2ccc(-n3c(=O)ccc4cnc5ccc(-c6cnc7ccccc7c6)cc5c43)cc2C(F)(F)F)CC1` had a % of control in assay [13] of 68%.

The values are drawn from ChEMBL document CHEMBL5465560, “Selectivity Literature for EUbOPEN Chemogenomic Library” (2024).
